# Measured values: patent US20170015555A1, “LONG-TERM PRESERVATION AND NOVEL APPLICATION OF CHLOROUS ACID AQUEOUS SOLUTION FORMULATION” (priority 2013, published 2017)
# How the values were obtained:
# [1] = test system: Microbes of the genus Salmonella: Salmonella Enteritidis IF03313; assay type: cell-based; settings: stored at 25° C. Day 0; 1000 ppm available chlorine
# Text: 1) Chlorous acid aqueous solution formulation (see Example 1: Table 11) Treatment sheet (material: 100% cotton): (about 27×40 cm) *Impregnated at a ratio of weight of treatment sheet (g): amount of liquid (ml)=1:3 2) Imitation vomit Miso solution: adjusted to pH of 2 with hydrochloric acid 3) Test Microbes that were Used E. coli: Escherichia coli IF03927 Staphylococcus aureus: Staphylococcus aureus IF0 12732 Thermoduric Microbes (Bacillus cereus): Bacillus cereus NBRC15305 Microbes of the genus Salmonella: Salmonella Enteritidis IF03313 Enterohemorrhagic Escherichia coli O157: Escherichia coli O157 Enterohemorrhagic Escherichia coli O111: Escherichia coli O111 Enterohemorrhagic Escherichia coli O26: Escherichia coli O26
# (1) Imitation vomit was spread in an area about the size of an A4 sheet. (2) 5 dry sheets were laid thereon. (3) An agent solution was poured on the dry sheets to wipe off the imitation vomit. (4) A cotton swab was soaked with sterile saline. A portion where imitation vomit was spread was scrubbed with the cotton swab to collect microbes remaining on the floor. After suspending in saline, the solution was spread on a petri dish and cultured. The number of each of the microbes was measured. (5) Test operations 3 and 4 were repeated a total of 7 times (repeated until the imitation vomit could be removed completely).
# [2] = Deodorizing effect (chemical deodorization, gas detector tube); settings: 400 ppm, spray 20 cc
# Text: (§1) In order to evaluate tests on deodorizing effects, the present Example examined deodorizing effects by using standards regarding air freshening and deodorization ([II]-2 Method of Testing Deodorizing Efficacy (Chemical Deodorization)) set forth by the Air Fresheners and Deodorizers Conference (http://www.houkou.gr.jp/) as the efficacy testing method, which is adopted by Japan Food Research Laboratories.
# (§2) Ammonium odor: Ammonium Standard Solution II (Wako Pure Chemical Industries, for testing malodorous substances) Amine odor: methyl mercaptan standard solution (Wako Pure Chemical Industries, for testing malodorous substances) Sulfur odor: hydrogen sulfide (self-made, used hydrogen sulfide that was generated by adding sulfuric acid to zinc sulfide)
# (§3) Gas detector tube made by GASTEC Corporation Ammonium odor: Detector tube ammonium 3 L made by GASTEC Corporation Amino odor: Detector tube methyl mercaptan 71 made by GASTEC Corporation Sulfur odor: Detector tube hydrogen sulfide 4 LL made by GASTEC Corporation
# (§4) Tests were conducted in compliance with ([II]-2 Method of Testing Deodorizing Efficacy (Chemical Deodorization)) set forth by the Air Fresheners and Deodorizers Conference.
# (§5) The tests were carried out by static culture method, using a commercially-available airbag with a spigot having a volume of about 10 L as test containers. The volume of airbags was appropriately changed in accordance with the size of the product.
# (§6) The bags were filled with odorless air. Malodor concentrations were measured over time at room temperature (about 20° C.). (3 points or higher, detection tube method (FIG. 16), measured by an instrument analysis method or olfactory measurement method. When decrease in the blank was observed, the decrease was suitably corrected. When measuring by olfactory measuring method, the airbag spigot was opened for direct sniffing, or gas was transferred to an odor bag while wearing a mask to perform olfactory measurement in an autonomic respiration form. Measured air was not returned to the source).
# For ammonium odor, the residual concentrations were detected and recorded for control (no specimen), 20 ml (cc) of distilled water, sodium hypochlorite (expressed as Na hypochlorite, 400 ppm), and chlorous acid aqueous solution (expressed as CAAS, 400 ppm) prior to spraying and 0 hour, 3 hours, 6 hours, 9 hours, and 24 hours after spraying.
# It is known that an odorous substance adsorbs to an airbag and naturally decreases when the odorous substance is in the airbag. In this regard, the amount of loss due to such a natural decrease was measured to normalize the observed values in a control segment.
# For the values, the values of the raw data were recorded. The concentration prior to spraying was adjusted and the controls were normalized to be 100. The results are shown in the following Table (In the Table, Cont indicates controls and h indicates time).
# [3] = as above; settings: spray 20 cc
# Text: as §1, §2, §3, §4, §5, §6
smiles,measurement,setting,value
"OCl [Sodium Hypochlorite, sodium hypochlorite]",Number of Times Wiped 1 Time (remaining microbes),[1],<10
same,Number of Times Wiped 2 Times (remaining microbes),[1],<10
same,Number of Times Wiped 3 Times (remaining microbes),[1],<10
same,"residual concentration of ammonium, after correction (Control = 100)",[2]; 0 h after spraying,9
same,"residual concentration of ammonium, before correction",[2]; 0 h after spraying,30 ppm
same,"residual concentration of ammonium, after correction (Control = 100)",[2]; 3 h after spraying,17
same,"residual concentration of ammonium, before correction",[2]; 3 h after spraying,50 ppm
same,"residual concentration of ammonium, after correction (Control = 100)",[2]; 6 h after spraying,21
same,"residual concentration of ammonium, before correction",[2]; 6 h after spraying,50 ppm
same,"residual concentration of ammonium, after correction (Control = 100)",[2]; 9 h after spraying,23
same,"residual concentration of ammonium, before correction",[2]; 9 h after spraying,40 ppm
same,"residual concentration of ammonium, after correction (Control = 100)",[2]; 24 h after spraying,28
same,"residual concentration of ammonium, before correction",[2]; 24 h after spraying,40 ppm
same,"residual concentration of ammonium, after correction (Control = 100)",[2]; before spraying,100
same,"residual concentration of ammonium, before correction",[2]; before spraying,320 ppm
same,"residual concentration of hydrogen sulfide, after correction (Control = 100)","[3]; Table 57, 0 h after spraying",0
same,"residual concentration of hydrogen sulfide, before correction","[3]; Table 57, 0 h after spraying",0 ppm
same,"residual concentration of hydrogen sulfide, after correction (Control = 100)","[3]; Table 57, 3 h after spraying",0
same,"residual concentration of hydrogen sulfide, before correction","[3]; Table 57, 3 h after spraying",0 ppm
same,"residual concentration of hydrogen sulfide, after correction (Control = 100)","[3]; Table 57, 6 h after spraying",0
same,"residual concentration of hydrogen sulfide, before correction","[3]; Table 57, 6 h after spraying",0 ppm
same,"residual concentration of hydrogen sulfide, after correction (Control = 100)","[3]; Table 57, 9 h after spraying",0
same,"residual concentration of hydrogen sulfide, before correction","[3]; Table 57, 9 h after spraying",0 ppm
same,"residual concentration of hydrogen sulfide, after correction (Control = 100)","[3]; Table 57, 24 h after spraying",0
same,"residual concentration of hydrogen sulfide, before correction","[3]; Table 57, 24 h after spraying",0 ppm
same,"residual concentration of hydrogen sulfide, after correction (Control = 100)","[3]; Table 57, before spraying",100
same,"residual concentration of hydrogen sulfide, before correction","[3]; Table 57, before spraying",40 ppm
same,"residual concentration of hydrogen sulfide, after correction (Control = 100)","[3]; Table 58, 0 h after spraying",0
same,"residual concentration of hydrogen sulfide, before correction","[3]; Table 58, 0 h after spraying",0 ppm
same,"residual concentration of hydrogen sulfide, after correction (Control = 100)","[3]; Table 58, 3 h after spraying",0
same,"residual concentration of hydrogen sulfide, before correction","[3]; Table 58, 3 h after spraying",0 ppm
same,"residual concentration of hydrogen sulfide, after correction (Control = 100)","[3]; Table 58, 6 h after spraying",0
same,"residual concentration of hydrogen sulfide, before correction","[3]; Table 58, 6 h after spraying",0 ppm
same,"residual concentration of hydrogen sulfide, after correction (Control = 100)","[3]; Table 58, 9 h after spraying",0
same,"residual concentration of hydrogen sulfide, before correction","[3]; Table 58, 9 h after spraying",0 ppm
same,"residual concentration of hydrogen sulfide, after correction (Control = 100)","[3]; Table 58, 24 h after spraying",0
same,"residual concentration of hydrogen sulfide, before correction","[3]; Table 58, 24 h after spraying",0 ppm
same,"residual concentration of hydrogen sulfide, after correction (Control = 100)","[3]; Table 58, before spraying",100
same,"residual concentration of hydrogen sulfide, before correction","[3]; Table 58, before spraying",50 ppm
